{
  "source": "ChEMBL document CHEMBL1201862",
  "about": "“PubChem BioAssay data set” (2004)",
  "key": {"[1]": {"biological_target": "T1, Neuropeptides B/W receptor type 1 (Homo sapiens, UniProt P48145)", "T1 sequence (P48145 whole entry)": "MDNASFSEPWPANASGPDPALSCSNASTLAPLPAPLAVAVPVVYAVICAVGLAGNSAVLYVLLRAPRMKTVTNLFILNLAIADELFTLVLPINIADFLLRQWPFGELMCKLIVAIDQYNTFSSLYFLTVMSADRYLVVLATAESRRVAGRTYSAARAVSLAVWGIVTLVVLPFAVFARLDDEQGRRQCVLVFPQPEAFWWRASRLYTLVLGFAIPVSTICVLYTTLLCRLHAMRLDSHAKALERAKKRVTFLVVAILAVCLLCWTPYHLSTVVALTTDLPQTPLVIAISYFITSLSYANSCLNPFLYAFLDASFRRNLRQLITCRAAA", "experiment": "Fluorescence-based dose response cell-based high throughput screening assay to identify antagonists of the G-protein coupled receptor 7 (GPR7). [Related pubchem assays: 1952 (Screening assay (GPR7 antagonists).), 1880 (Summary AID.)]", "assay_type": "functional"}, "[2]": {"biological_target": "Melanin-concentrating hormone receptor 1 (Homo sapiens, UniProt Q99705)", "sequence (Q99705 whole entry)": "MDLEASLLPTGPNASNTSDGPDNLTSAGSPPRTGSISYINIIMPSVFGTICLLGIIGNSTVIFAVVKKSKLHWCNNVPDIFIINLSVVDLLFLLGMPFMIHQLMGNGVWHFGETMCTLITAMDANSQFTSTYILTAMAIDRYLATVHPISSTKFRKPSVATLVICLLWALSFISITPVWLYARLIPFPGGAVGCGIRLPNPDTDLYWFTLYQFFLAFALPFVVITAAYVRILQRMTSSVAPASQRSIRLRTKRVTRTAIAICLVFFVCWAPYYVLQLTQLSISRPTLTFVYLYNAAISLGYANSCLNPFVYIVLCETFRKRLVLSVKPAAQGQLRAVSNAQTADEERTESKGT", "experiment": "Fluorescence-based counterscreen for antagonists of the G-protein coupled receptor 7 (GPR7): cell-based high throughput dose response assay to identify antagonists of the melanin-concentrating hormone receptor 1 (MCHR1).", "assay_type": "functional"}, "[3]": {"biological_target": "T2, Alkaline phosphatase, tissue-nonspecific isozyme (Homo sapiens, UniProt P05186)", "T2 sequence (P05186 whole entry)": "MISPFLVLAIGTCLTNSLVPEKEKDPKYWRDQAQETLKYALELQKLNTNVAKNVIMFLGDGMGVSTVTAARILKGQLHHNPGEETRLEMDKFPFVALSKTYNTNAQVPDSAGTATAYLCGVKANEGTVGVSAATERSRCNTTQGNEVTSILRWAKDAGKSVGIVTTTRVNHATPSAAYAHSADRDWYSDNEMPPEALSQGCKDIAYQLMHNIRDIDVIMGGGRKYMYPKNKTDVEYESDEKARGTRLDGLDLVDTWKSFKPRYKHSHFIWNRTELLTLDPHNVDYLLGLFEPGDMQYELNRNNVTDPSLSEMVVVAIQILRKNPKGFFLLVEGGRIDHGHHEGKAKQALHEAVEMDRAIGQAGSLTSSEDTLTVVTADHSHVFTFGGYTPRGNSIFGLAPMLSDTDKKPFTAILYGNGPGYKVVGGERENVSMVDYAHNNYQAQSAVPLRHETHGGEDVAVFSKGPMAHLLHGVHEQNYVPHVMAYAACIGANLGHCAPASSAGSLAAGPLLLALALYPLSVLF"}, "Aspartyl aminopeptidase": {"biological_target": "Aspartyl aminopeptidase (Plasmodium falciparum 3D7, UniProt Q8I2J3)", "sequence (Q8I2J3 whole entry)": "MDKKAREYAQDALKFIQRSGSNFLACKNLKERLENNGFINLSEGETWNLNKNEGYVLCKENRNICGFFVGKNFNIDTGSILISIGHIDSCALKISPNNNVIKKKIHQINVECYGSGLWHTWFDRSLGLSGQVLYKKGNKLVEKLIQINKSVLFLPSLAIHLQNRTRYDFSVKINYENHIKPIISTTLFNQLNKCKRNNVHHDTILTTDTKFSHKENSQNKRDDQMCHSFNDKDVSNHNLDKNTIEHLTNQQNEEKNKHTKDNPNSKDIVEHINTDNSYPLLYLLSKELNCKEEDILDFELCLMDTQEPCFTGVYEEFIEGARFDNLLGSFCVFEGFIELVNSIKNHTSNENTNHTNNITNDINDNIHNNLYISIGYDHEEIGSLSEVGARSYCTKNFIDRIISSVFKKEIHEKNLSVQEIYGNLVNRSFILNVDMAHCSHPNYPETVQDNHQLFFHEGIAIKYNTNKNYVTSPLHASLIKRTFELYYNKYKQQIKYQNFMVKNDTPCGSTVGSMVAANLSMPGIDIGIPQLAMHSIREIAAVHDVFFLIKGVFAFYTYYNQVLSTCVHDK"}, "Procathepsin L": {"biological_target": "Procathepsin L (Homo sapiens, UniProt P07711)", "sequence (P07711 whole entry)": "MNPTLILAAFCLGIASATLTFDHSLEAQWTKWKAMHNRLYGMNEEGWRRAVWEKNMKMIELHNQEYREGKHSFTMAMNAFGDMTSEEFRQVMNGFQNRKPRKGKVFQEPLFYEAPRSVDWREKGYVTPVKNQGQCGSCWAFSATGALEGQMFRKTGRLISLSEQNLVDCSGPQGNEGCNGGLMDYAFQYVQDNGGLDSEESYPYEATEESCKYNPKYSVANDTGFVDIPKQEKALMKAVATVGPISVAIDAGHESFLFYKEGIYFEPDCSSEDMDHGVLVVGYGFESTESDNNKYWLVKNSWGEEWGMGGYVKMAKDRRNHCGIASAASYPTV"}, "[4]": {"biological_target": "T3, Mannose-6-phosphate isomerase (Homo sapiens, UniProt P34949)", "T3 sequence (P34949 whole entry)": "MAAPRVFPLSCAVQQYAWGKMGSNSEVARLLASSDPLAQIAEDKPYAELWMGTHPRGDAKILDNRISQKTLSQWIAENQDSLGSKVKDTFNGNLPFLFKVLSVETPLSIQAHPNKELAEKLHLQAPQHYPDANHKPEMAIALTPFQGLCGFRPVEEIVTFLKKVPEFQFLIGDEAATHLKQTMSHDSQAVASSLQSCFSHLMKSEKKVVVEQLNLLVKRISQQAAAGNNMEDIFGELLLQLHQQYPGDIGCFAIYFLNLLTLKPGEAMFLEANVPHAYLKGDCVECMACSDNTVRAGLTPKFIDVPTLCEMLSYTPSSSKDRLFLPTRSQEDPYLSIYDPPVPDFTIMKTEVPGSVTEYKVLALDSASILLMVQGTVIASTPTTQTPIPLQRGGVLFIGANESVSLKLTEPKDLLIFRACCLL", "experiment": "MPI enzyme activity inhibition – biochemical, fluorescence intensity, coupled assay, primary screen (AID 1209)"}, "[5]": {"biological_target": "T3, Mannose-6-phosphate isomerase", "experiment": "MPI inhibition at elevated mannose 6-phosphate – biochemical, fluorescence intensity, high mannose 6-phosphate, primary screen (AID 1220)"}},
  "note": "Active and inactive are the calls of the source.",
  "data": [
    {"smiles": "COc1ccc(S(=O)(=O)N2CCC(C(=O)NCc3ccco3)CC2)cc1", "values": [
      {"measurement": "IC50", "setting": "[1]", "result": "> 43.8 µM (not active)"},
      {"measurement": "IC50", "setting": "[2]", "result": "> 43.8 µM (not active)"}
    ]},
    {"smiles": "O=C1CC(N2CCN(c3cccc(C(F)(F)F)c3)CC2)C(=O)N1c1ccc(F)cc1", "note": "(configuration not stated)", "values": [
      {"measurement": "EC50", "setting": "[3]", "result": "> 100 µM (not active)"}
    ]},
    {"smiles": "CCOC(=O)NC1(Nc2ccc(C)cc2)Oc2ccccc2O1", "values": [
      {"measurement": "IC50", "setting": "Aspartyl aminopeptidase", "result": "5.07 µM (active)"},
      {"measurement": "IC50", "setting": "Procathepsin L", "result": "> 59.6 µM (not active)"},
      {"measurement": "IC50", "setting": "[4]", "result": "> 50 µM (not active)"},
      {"measurement": "IC50", "setting": "[5]", "result": "> 50 µM (not active)"}
    ]}
  ]
}
